From patent US12503719B2, “Metabolomic characterization of microorganisms” (priority 2019, dated 2025)
≈ marks a conversion by molar mass, not a printed value.

What was measured:
C. albicans = conditions: published CLSI MIC used as test concentration; antifungals tested for C. albicans; cited from earlier work
[1] = published CLSI MIC used as test concentration; species not given; cited from earlier work
E. coli [2] = assay: MAST: succinate production after 4 h incubation with antimicrobial; type: cell-based, Escherichia coli; conditions: AMP and SXT resistant E. coli strain, antibiotics at MIC
Source text: All chemicals were obtained from Sigma-Aldrich (St. Louis, Mo. USA), VWR (Radnor, Pa. USA), or Fisher Scientific (Waltham, Mass. USA) unless otherwise specified. Clinical isolates used in this study were obtained from bloodstream infected patients. All strains were first identified and tested for antibiotic susceptibility using a clinical laboratory testing pipeline (plating on selective medium for single colony isolation, Gram staining, MALDI-TOF-MS species identification, and sub-culturing for purity and inoculation onto VITEK 2 (bioMerieux) antimicrobial susceptibility panels), and subsequently frozen as cryostocks. With the exception of S. pneumoniae, all strains were routinely grown in Mueller Hinton medium (BD Difco, Mississauga, ON, Canada). […] Supernatant was then diluted 1:10 with 50% LC-MS grade methanol and analyzed using UHPLC-MS. […]
To assess MAST as a potential clinical tool, three patient isolates for each target pathogen (2 each for S. aureus and P. aeruginosa) were analyzed. […] Both bactericidal (penicillins, cephalosporins, carbapenems, glycopeptides, aminoglycosides and fluoroquinolones) and bacteriostatic (macrolides, tetracyclines, and trimethoprim-sulfamethoxazole) antibiotic classes were evaluated.

S. pneumoniae = conditions: published CLSI MIC used as test concentration; cited from earlier work
K. pneumoniae = conditions: published CLSI MIC used as test concentration; cited from earlier work
E. coli [3] = conditions: published CLSI MIC used as test concentration; cited from earlier work
S. aureus = conditions: published CLSI MIC used as test concentration; cited from earlier work
P. aeruginosa = conditions: published CLSI MIC used as test concentration; cited from earlier work
KP = assay: MAST: hypoxanthine production after 4 h incubation with antimicrobial; type: cell-based, Klebsiella pneumoniae
Source text: All chemicals were obtained from Sigma-Aldrich (St. Louis, Mo. USA), VWR (Radnor, Pa. USA), or Fisher Scientific (Waltham, Mass. USA) unless otherwise specified. Clinical isolates used in this study were obtained from bloodstream infected patients. All strains were first identified and tested for antibiotic susceptibility using a clinical laboratory testing pipeline (plating on selective medium for single colony isolation, Gram staining, MALDI-TOF-MS species identification, and sub-culturing for purity and inoculation onto VITEK 2 (bioMerieux) antimicrobial susceptibility panels), and subsequently frozen as cryostocks. With the exception of S. pneumoniae, all strains were routinely grown in Mueller Hinton medium (BD Difco, Mississauga, ON, Canada). S. pneumoniae isolates were first revived on trypticase soy agar plates containing sheep blood (BD BBL, Mississauga, ON, Canada) and then sub-cultured into Mueller Hinton medium supplemented with catalase (1000 U/mL). For biomarker discovery and validation of biomarkers using MPAs, exponential phase cultures were used to seed 96 well culture plates (Corning, N.Y., N.Y. USA) containing Mueller Hinton medium with 10% donated human blood to a 0.5 McFarland (OD600˜0.07 or ˜1.5×10^8 CFU/mL). […] Supernatant was then diluted 1:10 with 50% LC-MS grade methanol and analyzed using UHPLC-MS. […]

E. faecalis = conditions: published CLSI MIC used as test concentration; cited from earlier work

In the case of Nc1nc(=O)[nH]cc1F [5FC, 5-flucytosine], the minimum inhibitory concentrations (C. albicans) is listed as 0.5 µg/mL (≈ 3.87 µM).

In the case of C[C@@H]1[C@H](O)[C@@H](C)/C=C/C=C/C=C/C=C/C=C/C=C/C=C/[C@H](O[C@@H]2O[C@H](C)[C@@H](O)[C@H](N)[C@@H]2O)C[C@@H]2O[C@](O)(C[C@@H](O)C[C@@H](O)[C@H](O)CC[C@@H](O)C[C@@H](O)CC(=O)O[C@H]1C)C[C@H](O)[C@H]2C(=O)O [AMB, amphotericin B], the minimum inhibitory concentrations (C. albicans) is given as 2 µg/mL (≈ 2.16 µM).

For CC1(C)S[C@@H]2[C@H](NC(=O)[C@H](N)c3ccccc3)C(=O)N2[C@H]1C(=O)O [AMP, ampicillin], the minimum inhibitory concentrations [1] is given as 8 µg/mL (≈ 22.9 µM) and the “succinate production in presence of antibiotic versus absence of antibiotics” value (E. coli [2]) is given as “comparable”.

For CC(C)(O/N=C(\C(=O)N[C@@H]1C(=O)N2C(C(=O)[O-])=C(C[n+]3ccccc3)CS[C@H]12)c1csc(N)n1)C(=O)O [CAZ, ceftazidime], the minimum inhibitory concentrations [1] is given as 8 µg/mL (≈ 14.6 µM).

In the case of Cc1nnc(SCC2=C(C(=O)O)N3C(=O)[C@@H](NC(=O)Cn4cnnn4)[C@H]3SC2)s1 [CFX, cefazolin], the minimum inhibitory concentrations [1] is given as 4 µg/mL (≈ 8.8 µM).

For CO/N=C(\C(=O)N[C@@H]1C(=O)N2C(C(=O)O)=C(CSc3nc(=O)c(=O)[nH]n3C)CS[C@H]12)c1csc(N)n1 [CRO, Ceftriaxone], the minimum inhibitory concentrations (S. pneumoniae) is listed as 0.5 µg/mL (≈ 0.902 µM), the minimum inhibitory concentrations (K. pneumoniae) is listed as 1 µg/mL (≈ 1.8 µM) and the minimum inhibitory concentrations (E. coli [3]) is listed as 1 µg/mL (≈ 1.8 µM).

For CC[C@H]1OC(=O)[C@H](C)[C@@H](O[C@H]2C[C@@](C)(OC)[C@@H](O)[C@H](C)O2)[C@H](C)[C@@H](O[C@@H]2O[C@H](C)C[C@H](N(C)C)[C@H]2O)[C@](C)(O)C[C@@H](C)C(=O)[C@H](C)[C@@H](O)[C@]1(C)O [ERY, erythromycin], the minimum inhibitory concentrations (S. pneumoniae) is listed as 0.25 µg/mL (≈ 0.341 µM) and the minimum inhibitory concentrations (S. aureus) is listed as 0.5 µg/mL (≈ 0.681 µM).

In the case of OC(Cn1cncn1)(Cn1cncn1)c1ccc(F)cc1F [FLC, fluconozole], the minimum inhibitory concentrations (C. albicans) is listed as 2 µg/mL (≈ 6.53 µM).

For C[C@@H](O)[C@H]1C(=O)N2C(C(=O)O)=C(S[C@@H]3CN[C@H](C(=O)N(C)C)C3)[C@H](C)[C@H]12 [MEM, meropenem], the minimum inhibitory concentrations (S. pneumoniae) is listed as 0.25 µg/mL (≈ 0.652 µM), the minimum inhibitory concentrations (P. aeruginosa) is listed as 2 µg/mL (≈ 5.22 µM) and the minimum inhibitory concentrations (K. pneumoniae) is listed as 1 µg/mL (≈ 2.61 µM). The minimum inhibitory concentrations (E. coli [3]) was 1 µg/mL (≈ 2.61 µM), the hypoxanthine production (KP; drug sensitive strains, range of meropenem concentrations) was “incremental reduction in hypoxanthine production proportional to meropenem concentrations” and the hypoxanthine production (KP; resistant strains, clinically-relevant antibiotic concentrations) was “remain unaffected”.

For Cc1onc(-c2ccccc2)c1C(=O)N[C@@H]1C(=O)N2[C@@H]1SC(C)(C)[C@@H]2C(=O)O [OXA, oxacillin], the minimum inhibitory concentrations [1] is given as 2 µg/mL (≈ 4.98 µM).

For CN[C@H](CC(C)C)C(=O)N[C@H]1C(=O)N[C@@H](CC(N)=O)C(=O)N[C@H]2C(=O)N[C@H]3C(=O)N[C@H](C(=O)N[C@H](C(=O)O)c4cc(O)cc(O)c4-c4cc3ccc4O)[C@H](O)c3ccc(c(Cl)c3)Oc3cc2cc(c3O[C@@H]2O[C@H](CO)[C@@H](O)[C@H](O)[C@H]2O[C@H]2C[C@](C)(N)[C@H](O)[C@H](C)O2)Oc2ccc(cc2Cl)[C@H]1O [VAN, vancomycin], the minimum inhibitory concentrations (S. pneumoniae) is listed as 1 µg/mL (≈ 0.69 µM), the minimum inhibitory concentrations (S. aureus) is listed as 2 µg/mL (≈ 1.38 µM) and the minimum inhibitory concentrations (E. faecalis) is listed as 4 µg/mL (≈ 2.76 µM).

In the case of gentamicin, the minimum inhibitory concentrations [1] is listed as 4 µg/mL and the minimum inhibitory concentrations (E. faecalis) is listed as 500 µg/mL.

In the case of penicillin, the minimum inhibitory concentrations [1] is given as 0.06 µg/mL.
